Laboratory results: patent US9845310B2 (priority 2015, dated 2017)
Values joined by “and” are separate entries in the source; they are usually repeats but may differ in a detail not shown here. Identical values can stand only once. Like-named read-outs stand apart in the source and are kept apart here.

Legend:
[1] = system: naive Sprague Dawley rat hearts; settings: for left ventricular dP/dtmax (load independent cardiac contractility) / left ventricular dP/dtmin (load independent cardiac relaxation): ex vivo naive Sprague Dawley rat hearts, Langendorff apparatus, as a function of concentration
heart failure rat model = type: in vivo; settings: for cardiac contractility as measured by dP/dtmax (derivative of left ventricular pressure): male Lewis rats, heart failure by permanent ligation of left descending coronary artery, ejection fraction <35%, dosed acutely for 30 min
Method: Male Lewis rats (Charles River, USA) at 2-3 months of age were used for the study. […] APJ agonists were administered dose dependently acutely for a period of 30 min.

APJ [2] = biological target: T1, APJ (Homo sapiens (Human), UniProt P35414); test: [35S]GTPγS binding assay on membranes from CHO cells stably expressing human APJ receptor; type: biochemical; settings: Activity hAPJ SPA EC50 IP (μM)
T1 sequence (P35414 whole entry): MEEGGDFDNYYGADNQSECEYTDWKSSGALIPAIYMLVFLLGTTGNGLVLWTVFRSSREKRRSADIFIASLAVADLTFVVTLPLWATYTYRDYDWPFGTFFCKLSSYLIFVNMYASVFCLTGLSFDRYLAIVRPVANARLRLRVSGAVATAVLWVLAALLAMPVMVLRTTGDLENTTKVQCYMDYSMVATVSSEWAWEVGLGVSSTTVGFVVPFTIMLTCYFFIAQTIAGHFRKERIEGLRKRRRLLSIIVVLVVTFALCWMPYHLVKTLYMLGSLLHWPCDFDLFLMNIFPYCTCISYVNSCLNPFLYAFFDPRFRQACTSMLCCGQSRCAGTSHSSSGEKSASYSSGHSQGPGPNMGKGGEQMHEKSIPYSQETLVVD
Method: A GTPγS binding assay was performed on membranes prepared from CHO cells stably expressing human APJ receptor. The optimum experimental conditions for the concentrations of GDP, MgCl2, and NaCl in the assay buffer were initially determined. The assay was performed in assay buffer [20 mM HEPES, pH 7.5, 5 mM MgCl2, and 0.1% (w/v) BSA with 200 mM NaCl, 3 M GDP] and membranes expressing human APJ receptor/well along with WGA PS beads. The reaction was initiated by addition of 0.2 nM [^35S]GTPγS (Perkin Elmer Life and Analytical Sciences, Waltham USA) in the absence or presence of various ligands and incubated at RT for 90 min. Nonspecific binding was determined in the presence of 100 M GTPγS and was always less than 0.2% of total binding.

APJ [3] = biological target: T1, APJ; settings: 2003 study, Medhurst et al.; cited from earlier work
[4] = ex vivo isolated perfused rat heart, contractility, percent change over vehicle
[5] = ex vivo isolated perfused rat heart, relaxation (lusitropic), percent change over vehicle
[6] = in vivo heart failure (MI) rat, acute administration for 30 min

Compound	Isolated Heart Assay dP/dtmax(%) [1, 4]	Isolated Heart Assay dP/dtmin(%) [1, 5]	MI Rat Model dP/dtmax(%) (heart failure rat model; [6])	EC50 (APJ [2]) [µM]	also measured
COc1cccc(OC)c1-n1c(NS(=O)(=O)[C@H](C)[C@@H](C)c2ncc(Cl)cn2)nnc1-c1cccnc1 (racemic) [Example 694.0, (2R,3S)-3-(5-chloropyrimidin-2-yl)-N-(4-(2,6-dimethoxyphenyl)-5-(pyridin-3-yl)-4H-1,2,4-triazol-3-yl)butane-2-sulfonamide or (2S,3R)-3-(5-chloropyrimidin-2-yl)-N-(4-(2,6-dimethoxyphenyl)-5-(pyridin-3-yl)-4H-1,2,4-triazol-3-yl)butane-2-sulfonamide]	18.0%	32.0%	8%	–	–
CCO[C@H](c1ncc(C)cn1)[C@H](C)S(=O)(=O)Nc1nnc(-c2cccnc2)n1-c1c(OC)cccc1OC (single isomer, unassigned) [Example 109.0]	–	–	–	–	Isolated Heart Assay dP/dtmax(%) [1]: 15%; Isolated Heart Assay dP/dtmin(%) [1]: 25%; left ventricular dP/dtmax (load independent cardiac contractility) [1]: increases load independent cardiac contractility; left ventricular dP/dtmin (load independent cardiac relaxation) [1]: increases load independent cardiac relaxation; cardiac contractility as measured by dP/dtmax (derivative of left ventricular pressure) (heart failure rat model): increase in cardiac contractility; MI Rat Model dP/dtmax(%) (heart failure rat model; rat, in vivo): 20%
COc1cccc(OC)c1-n1c(NS(=O)(=O)[C@H](C)[C@@H](OC)c2ncc(Cl)cn2)nnc1-c1cncc(C)c1 (single isomer, unassigned) [Example 557.0]	17.0%	20.0%	No effect	–	–
COc1cccc(OC)c1-n1c(NS(=O)(=O)[C@@H](C)[C@@H](OC(C)C)c2ncc(C)cn2)nnc1-c1cncc(C)c1 (stereo in doubt) [Example 91.0, (1S,2S)-N-(4-(2,6-dimethoxyphenyl)-5-(5-methylpyridin-3-yl)-4H-1,2,4-triazol-3-yl)-1-isopropoxy-1-(5-methylpyrimidin-2-yl)propane-2-sulfonamide]	20.0%	43.0%	25%	–	–
COc1cccc(OC)c1-n1c(NS(=O)(=O)[C@@H](C)[C@H](OC(C)C)c2ncc(C)cn2)nnc1-c1cncc(C)c1 (stereo in doubt) [Example 93.0, (1R,2S)-N-(4-(2,6-dimethoxyphenyl)-5-(5-methylpyridin-3-yl)-4H-1,2,4-triazol-3-yl)-1-isopropoxy-1-(5-methylpyrimidin-2-yl)propane-2-sulfonamide]	19.0%	27.0%	20%	–	–
COc1cccc(-c2nnc(NS(=O)(=O)[C@@H](C)[C@H](OC)c3ncc(C)cn3)n2-c2c(OC)cccc2OC)n1 [Example 27.0, (1R,2S)-N-(4-(2,6-dimethoxyphenyl)-5-(6-methoxypyridin-2-yl)-4H-1,2,4-triazol-3-yl)-1-methoxy-1-(5-methylpyrimidin-2-yl)propane-2-sulfonamide]	26%	20%	20%	–	left ventricular dP/dtmax (load independent cardiac contractility) [1]: increases load independent cardiac contractility; left ventricular dP/dtmin (load independent cardiac relaxation) [1]: increases load independent cardiac relaxation; cardiac contractility as measured by dP/dtmax (derivative of left ventricular pressure) (heart failure rat model): increase in cardiac contractility
COc1cccc(OC)c1-n1c(NS(=O)(=O)[C@@H](C)[C@H](O)c2ncc(C)cn2)nnc1-c1cccc(C)n1 [Example 99.0]	18% and 19.7%	30% and 31%	30% and 31%	–	–
COc1cccc(OC)c1-n1c(NS(=O)(=O)[C@@H](C)[C@H](C)c2cnc(C)cn2)nnc1-c1cccnc1 [Example 198.0, (2S,3R)-N-(4-(2,6-dimethoxyphenyl)-5-(pyridin-3-yl)-4H-1,2,4-triazol-3-yl)-3-(5-methylpyrazin-2-yl)butane-2-sulfonamide]	15.0%	19.0%	15%	–	–
COc1cccc(OC)c1-n1c(NS(=O)(=O)[C@@H](C)[C@H](OC)c2ncc(C)cn2)nnc1-c1cncc(C)c1 [Example 203.0, (1R,2S)-N-(4-(2,6-dimethoxyphenyl)-5-(5-methyl-3-pyridinyl)-4H-1,2,4-triazol-3-yl)-1-methoxy-1-(5-methyl-2-pyrimiidnyl)-2-propanesulfonamide]	No effect	No effect	12%	–	–
COc1cccc(-c2nnc(NS(=O)(=O)[C@@H](C)[C@H](O)c3ccc(F)cc3S(C)(=O)=O)n2-c2c(OC)cccc2OC)n1 [Example 288.0]	–	–	–	0.0011	–
COc1ccc(Cl)c(OC)c1-n1c(-c2cncc(C)c2)nnc1S(=O)(=O)NCCc1ccc(Cl)cc1 [Example 373.0, 4-(3-chloro-2,6-dimethoxyphenyl)-N-(2-(4-chlorophenyl)ethyl)-5-(5-methyl-3-pyridinyl)-4H-1,2,4-triazole-3-sulfonamide]	–	–	–	0.31	–
COc1cccc(OC)c1-n1c(NS(=O)(=O)[C@@H](C)[C@H](OC)c2ncc(-c3ccccc3)cn2)nnc1-c1cncc(C)c1 [Example 428.0, (1R,2S)-N-(4-(2,6-dimethoxyphenyl)-5-(5-methylpyridin-3-yl)-4H-1,2,4-triazol-3-yl)-1-methoxy-1-(5-phenylpyrimidin-2-yl)propane-2-sulfonamide]	–	–	–	0.0025	–
CC#Cc1cnc([C@@H](OC)[C@H](C)S(=O)(=O)Nc2nnc(-c3cncc(C)c3)n2-c2c(OC)cccc2OC)nc1 [Example 535.0, (1R,2S)-N-(4-(2,6-dimethoxyphenyl)-5-(5-methylpyridin-3-yl)-4H-1,2,4-triazol-3-yl)-1-methoxy-1-(5-(prop-1-yn-1-yl)pyrimidin-2-yl)propane-2-sulfonamide]	–	–	–	0.0013	–
COc1cccc(-c2nnc(NS(=O)(=O)CCc3ccc(C#N)cn3)n2-c2c(OC)cccc2OC)n1 [Example 550.0, 2-(5-cyanopyridin-2-yl)-N-(4-(2,6-dimethoxyphenyl)-5-(6-methoxypyridin-2-yl)-4H-1,2,4-triazol-3-yl)ethanesulfonamide]	–	–	–	0.0008	–
COc1cccc(OC)c1-n1c(NS(=O)(=O)[C@@H](C)[C@H](C)c2ncc(C)cn2)nnc1-c1cccnc1 [Example 586.0, (2S,3R)-N-(4-(2,6-dimethoxyphenyl)-5-(3-pyridinyl)-4H-1,2,4-triazol-3-yl)-3-(5-methyl-2-pyrimidinyl)-2-butanesulfonamide]	–	–	–	–	Isolated Heart Assay dP/dtmax(%) [1]: 15%; Isolated Heart Assay dP/dtmin(%) [1]: 21%; left ventricular dP/dtmax (load independent cardiac contractility) [1]: increases load independent cardiac contractility; left ventricular dP/dtmin (load independent cardiac relaxation) [1]: increases load independent cardiac relaxation; cardiac contractility as measured by dP/dtmax (derivative of left ventricular pressure) (heart failure rat model): increase in cardiac contractility
COc1ncnc(OC)c1-n1c(NS(=O)(=O)[C@@H](C)[C@H](OC)c2ncc(C)cn2)nnc1-c1ccccn1 [Example 628.0, (1R,2S)-N-(4-(4,6-dimethoxy-5-pyrimidinyl)-5-(2-pyridinyl)-4H-1,2,4-triazol-3-yl)-1-methoxy-1-(5-methyl-2-pyrimidinyl)-2-propanesulfonamide]	–	–	–	–	Isolated Heart Assay dP/dtmax(%) [1]: 18.3%; Isolated Heart Assay dP/dtmin(%) [1]: 18.0%; MI Rat Model dP/dtmax(%) (heart failure rat model; rat, in vivo): 15%
CO[C@H](c1ncc(C)cn1)[C@H](C)S(=O)(=O)Nc1nnc(-c2cncc(C)c2)n1-c1c(C)cccc1C [Example 673.0, (1R,2S)-N-(4-(2,6-dimethylphenyl)-5-(5-methyl-3-pyridinyl)-4H-1,2,4-triazol-3-yl)-1-methoxy-1-(5-methyl-2-pyrimidinyl)-2-propanesulfonamide 2,2,2-trifluoroacetate]	–	–	–	0.022	–
COc1cccc(-c2nnc(NS(=O)(=O)[C@@H](C)[C@H](OC)c3ncc(C)cn3)n2-c2c(F)cccc2F)n1.O=C(O)C(F)(F)F [Example 684.0, (1R,2S)-N-(4-(2,6-difluorophenyl)-5-(6-methoxy-2-pyridinyl)-4H-1,2,4-triazol-3-yl)-1-methoxy-1-(5-methyl-2-pyrimidinyl)-2-propanesulfonamide]	19.0%	18.3%	20%	–	–
COCCO[C@H](c1ncc(C)cn1)[C@H](C)S(=O)(=O)Nc1nnc(-c2cccc(OC)n2)n1-c1c(OC)cccc1OC [Example 695.0, (1R,2S)-N-(4-(2,6-dimethoxyphenyl)-5-(6-methoxypyridin-2-yl)-4H-1,2,4-triazol-3-yl)-1-(2-methoxyethoxy)-1-(5-methylpyrimidin-2-yl)propane-2-sulfonamide]	–	–	–	0.00012	–
COc1cccc(OC)c1-n1c(NS(=O)(=O)[C@@H](C)[C@H](C)c2ncc(C#N)cn2)nnc1-c1cncc(C)c1 [Example 697.0, (2S,3R)-3-(5-cyano-2-pyrimidinyl)-N-(4-(2,6-dimethoxyphenyl)-5-(5-methyl-3-pyridinyl)-4H-1,2,4-triazol-3-yl)-2-butanesulfonamide]	–	–	–	0.0007	–
COc1cccc(OC)c1-n1c(NS(=O)(=O)[C@@H](C)[C@H](C)c2ncc(C)cn2)nnc1-c1cncc(C2CC2)c1 [Example 734.0, (2S,3R)-N-(5-(5-cyclopropylpyridin-3-yl)-4-(2,6-dimethoxyphenyl)-4H-1,2,4-triazol-3-yl)-3-(5-methylpyrimidin-2-yl)butane-2-sulfonamide]	–	–	–	0.002	–
COc1cnc([C@@H](C)[C@H](C)S(=O)(=O)Nc2nnc(-c3cccc(OC)n3)n2-c2c(F)cccc2F)cn1 [Example 787.0, (2S,3R)-N-(4-(2,6-difluorophenyl)-5-(6-methoxy-2-pyridinyl)-4H-1,2,4-triazol-3-yl)-3-(5-methoxy-2-pyrazinyl)-2-butanesulfonamide]	–	–	–	0.00053	–
apelin-17	–	–	–	–	in vitro activity compared among apelin-36, apelin-17 and apelin-13 (APJ [3]): approximately equipotent
apelin-36	–	–	–	–	in vitro activity compared among apelin-36, apelin-17 and apelin-13 (APJ [3]): approximately equipotent
